# Measurements taken from patent publication US20140303109A1 (priority 2010, published 2014).
# Tests used:
# [1] = system: miR-200b and miR-200c; assay: Real-time RT-PCR of miR-200b and miR-200c in PC cell lines; assay type: cell-based, human; conditions: 72 h; BxPC-3, MIAPaCa-E, MIAPaCaM
# Experimental: The expression of miRNAs (miRNA-200a, miR-200b, and miR-21) in all three pancreatic cancer cell lines, was measured with a TaqMan MicroRNA Assay kit (Applied Biosystems, Carlsbad, Calif.) following the manufacturer's protocol. […] Real-time RT-PCR reactions were then carried out in a total volume of 25 μl reaction mixture, as described by Li, et al., id., using Smart Cycler II (Cepheid, Sunnyvale, Calif.). The data were analyzed using Ct method and were normalized by RNU6B expression in each sample.
# [2] = system: AsPC-1 and MIAPaCa-2 cells; assay: Clonogenic assay, parental lines; assay type: cell-based, human; conditions: 4 μmol/L CUR or CDF, 20 nmol/L GEM
# [3] = system: COX-2, E-cadherin, PTEN, pAkt, tropomyosin expression; assay: Western blot of COX-2, E-cadherin, PTEN, pAkt, tropomyosin; assay type: cell-based, human; conditions: BxPC-3 cell line only, 72 h
# [4] = system: AsPC-1, AsPC1-GTR, MIAPaCa-2, and MIAPaCa-2-GTR cell lines; assay: BD BioCoat tumor invasion assay; assay type: cell-based, human; conditions: 4 μmol/L
# Experimental: The invasive activity of the drug resistant cell lines was tested by using a BD BioCoat Tumor Invasion Assay System (BD Biosciences, Bedford, Mass.) according to the manufacturer's protocol. […] The fluorescence was read using a TECAN Microplate Reader at 530/590 nm and photographed.
# [5] = Pancreas tissue pharmacokinetics after single intragastric dose; assay type: in vivo, mice
# Experimental: (§1) The mice were randomly divided into two groups of 18 mice apiece. […] Blood and tissue samples were harvested before initiation of treatment (0 hr) and at 1, 2, 4, 6, 8, 12, 16, and 24 hrs following the intragastric administration. At each time point, two mice were euthanized and ˜200 μL blood was collected by cardiac puncture, and tissues (liver, lung, kidney, heart, pancreas, and colon) were harvested, washed free of blood with PBS, blotted dry, weighed, and stored at −80° C. until analysis. The collected blood samples were allowed to clot, centrifuged, and then the serum was separated and stored at −80° C. until analysis.
# (§2) The tissue samples were homogenized in 5 volumes of ice-cold normal saline. Aliquots of serum or tissue homogenate were spiked with ethyl acetate (containing 50 ng/ml zilueton as an internal standard) as follows: 100 μL serum/500 μL ethyl acetate and 500 μL tissue homogenate/1 ml ethyl acetate. The mixtures were vortex-mixed and centrifuged at 14,000 rpm for 5 minutes. The top layer was separated and dried under a stream of nitrogen in a water bath at about 50° C. The residue was reconstituted in 100 μL of methanol/water containing 0.45% formic acid (70:30 v/v) and then centrifuged again.
# (§3) The supernatant (100 μL) was injected into the HPLC equipment, and separated on a Waters Xterra MS column (2.1×50 mm, […] i.d.) With a mobile phase consisting of methanol/water containing 0.45% formic acid (70:30 v/v) at a flow rate of 0.2 ml/min. The column effluent was monitored using a Waters Quattro Micro™ triple quadrapole mass-spectrometric detector equipped with an electrospray ionization source. (Waters Corporation, Milford, Mass.). […] The internal standard zilueton was monitored in the positive mode at the transition of m/z, 237.1→160.8. […] The within-day and between-day precision and accuracies of the assay was <15%.
# Serum pharmacokinetic parameters were estimated using non-compartmental analysis with WinNonlin software version 4.2 (Pharsight Corporation, Cary, N.C.). The maximum serum concentration (Cmax) and the time of occurrence for maximum concentration (Tmax) were obtained by visual inspection of the serum concentration-time curve after drug administration. The total area under the serum concentration-time curve from time zero to the last measurable time point ([…]) was calculated using the linear and logarithmic trapezoidal method for ascending and descending serum concentrations, respectively.
# [6] = biological target: T1, cellular 26S proteasome (Homo sapiens, UniProt P20618+P28074); assay: Proteasomal chymotrypsin-like activity in treated HCT 116 cells; assay type: cell-based; conditions: 24 h
# T1 construct: host or cells: HCT 116 human colon cancer cells
# Experimental: HCT 116 human colon cancer cells; human pancreatic carcinoma cell lines BxPC-3 and MIA PaCa-2, were purchased from American Type Culture Collection (Manassas, Va.) and grown in Dulbecco modified Eagle's medium supplemented with 10% fetal bovine serum (FBS), 100 units/ml of penicillin, and 100 μg/ml of streptomycin. Cells were maintained at 37° C. and 5% CO2. FBS was obtained from Tissue Culture Biologicals (Tulare, Calif.). Penicillin and streptomycin were purchased from Invitrogen Co. (Carlsbad, Calif.).
# As a control, untreated cells were maintained in the solvent ethanol (E).
# [7] = system: PGE2; assay: PGE2 immunoassay of conditioned medium, BxPC-3 and MIA PaCa-2; assay type: cell-based, human; conditions: 24 h
# Experimental: The conditioned medium was collected and analyzed for PGE2 concentration, according to the manufacture's protocol, using a PGE2 high sensitivity immunoassay kit purchased from R & D Systems, Minneapolis, Minn. The optical density was measured at 450 nm and the concentration of PGE2 was calculated from the standard curve.
# [8] = system: PGE2; assay: PGE2 immunoassay, three PC lines; assay type: cell-based, human; conditions: 24 h serum-free; CDF or CUR 1-4 μMol/L, GEM 10 nMol/L
# [9] = Tissue distribution after single intragastric dose; assay type: in vivo, mice; conditions: for concentration in the colon: 250 mg/kg oral; for preferential tissue distribution: 250 mg/kg single dose, liver, lung, kidney, heart, pancreas, colon
# Experimental: as §1, §2, §3
# [10] = system: BxPC-3 pancreatic cancer cells; assay: Cell Apoptosis ELISA (histone/DNA fragments), BxPC-3; assay type: cell-based, human; conditions: 72 h, various concentrations
# From the text: A Cell Apoptosis ELISA Detection Kit (Roche, Palo Alto, Calif.) was used to determine whether the inhibition of cell growth could be due, at least partially, to the induction of apoptosis, in the BxPC-3 pancreatic cancer cells. […] After the treatment, the cytoplasmic histone/DNA fragments were extracted and bound to immobilized anti-histone antibody. Subsequently, peroxidase-conjugated anti-DNA antibody was used for the detection of immobilized histone/DNA fragments.
# [11] = system: miR-21, miR-200b, miR-200c; assay: RT-PCR of miR-21, miR-200b, miR-200c in MIAPaCa-2 tumors; assay type: in vivo, mice
# Experimental: Therefore, the expression of miRNAs (miRNA-200b, miR-200c, and miR-21) in MIAPaCa-2 tumors, was assessed with a TaqMan MicroRNA Assay kit (Applied Biosystems, Carlsbad, Calif.) following the manufacturer's protocol. 5 ng of total RNA was reverse transcribed and real-time PCR reactions were carried as previously described.
# [12] = female, ICR-SCID, mouse, po, pancreas, 250 mg/kg single intragastric
# [13] = pancreas, 250 mg/kg single intragastric
Compound,expression of miR-200b and miR-200c [1],clonogenicity [2],E-cadherin expression [3],inhibition of invasion [4],"AUClast [5, 13] [µg·h/g]","Clast [5, 13] [µg/g]","Tlast [5, 13] [h]",inhibition at 10 µM [6] [%],inhibition at 20 µM [6] [%],inhibition at 30 µM [6] [%],"PGE2 level in conditioned medium ([7]; MIAPaCa-2 cells, 4 μM)",PGE2 secretion level [8],concentration in the colon [9],preferential tissue distribution [9],induction of apoptotic cell death [10],expression of miR-200b and miR-200c in tumors [11],also measured
"COc1cc(/C=C/C(=O)C(=Cc2ccc(F)c(F)c2)C(=O)/C=C/c2ccc(O)c(OC)c2)ccc1O [CDF, (1E,6E)-1,7-bis(4-hydroxy-3-methoxyphenyl)hepta-1,6-diene{4(3,4 difluorobenzaldehyde)}-3,5-dione]",much more pronounced,significant reduction in clonogenicity,significantly enhanced,significant inhibition of invasion,36.56,0.04,12.0,34,51,61,significant decrease in PGE2 levels,significant reduction in PGE2 level,detectable at high concentrations in the colon,accumulated preferentially in the pancreas,superior to CUR,"increased expression of both miR-200b, and miR-200c","AUClast in pancreas tissue relative to CUR ([5]; 250 mg/kg): 10.6 times; Cmax in pancreas tissue relative to CUR ([5]; 250 mg/kg): 4.3 times; Kp at 8 h ([5]; female, ICR-SCID, mouse, pancreas / serum, oral, 250 mg/kg, at 8 h, read-out: Cmax in pancreas relative to serum): 44.5; Cmax [5, 12]: 9350 ng/g; Tmax [5, 12]: 8 h; PGE2 level in conditioned medium ([7]; BxPC-3 cells, 1 μM): significant decrease in PGE2 level; expression of MiR-21 in tumors [11]: significant reduction in the expression of MiR-21"
"COc1cc(/C=C/C(=O)CC(=O)/C=C/c2ccc(O)c(OC)c2)ccc1O [CUR, (1E,6E)-1,7-bis(4-hydroxy-3-methoxyphenyl)hepta-1,6-diene-3,5-dione, reference compound]",increased expression of miR-200b and miR-200c,significant reduction in clonogenicity,significantly enhanced,minimal inhibition on invasion,3.46,0.20,16.0,27,47,64,significant decrease in PGE2 levels,significant reduction in PGE2 level,detectable at high concentrations in the colon,present mainly in heart and lung tissue,induce apoptosis,minimal,–
